The term IC50 denotes the concentration needed to halve the response being measured.

This passage reports IC50 results from US9073895B2 (Boehringer Ingelheim International GmbH, priority 2010, dated 2015).

Assay [1] addresses T1, recombinant human FLAP protein (Homo sapiens, UniProt P20292).
T1 construct: made in house; host or cells: Sf9 insect cells (membrane fraction, 100,000 x g pellet)
T1 sequence (P20292 1-161): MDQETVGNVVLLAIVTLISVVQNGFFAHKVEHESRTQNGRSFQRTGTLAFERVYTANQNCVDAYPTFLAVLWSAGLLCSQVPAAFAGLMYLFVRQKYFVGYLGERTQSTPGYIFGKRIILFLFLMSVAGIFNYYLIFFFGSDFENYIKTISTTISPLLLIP
The assay can be described thus: FLAP binding assay (SPA, displacement of [125I]L-691,831). Conditions: membranes of sf9 cells expressing human FLAP, [125I]L-691,831 probe; read-out: hFLAP binding IC50. The protocol:
Compounds are assessed for the ability to bind to FLAP in a binding assay that measures compound-specific displacement of an iodinated (^125I) FLAP inhibitor via a Scintillation Proximity Assay format (adapted from S. Charleson et al., Mol. Pharmacol., 1992, 41, 873-879).
Cell pellets produced from sf9 insect cells expressing recombinant human FLAP protein are resuspended in buffer A [15 mM Tris-HCl (pH 7.5), 2 mM MgCl2, 0.3 mM EDTA, 1 mM PMSF]. The cells are lysed with a Dounce homogenizer and the material is centrifuged at 10,000×g for 10 minutes. The supernatant is then collected and centrifuged at 100,000×g for 60 minutes. To prepare membrane protein for an assay, an aliquot of the 100,000×g pellet is resuspended in 1 ml of buffer A, Dounce homogenized, and finally subjected to polytron mixing (30 seconds). Membrane protein (25 μl, 5 μg) is mixed with WGA SPA beads (Amersham) and stirred for 1 h. To an assay plate (Perkin Elmer FlexiPlate) is added 25 μl of test compound prepared in Binding buffer [100 mM Tris (pH 7.5), 140 mM NaCl, 5% glycerol, 2 mM EDTA, 0.5 mM TCEP, 0.05% Tween 20], 25 μl of [^125I]L-691,831 (an iodinated analog of MK-591, Charleson et al. Mol. Pharmacol., 41, 873-879, 1992) and finally 50 μl of the bead/protein mixture. (final concentrations: beads, 200 μg/well; protein, 5μg/well; [^125I] probe, 0 08 nM/well(17 nCi/well). The plates are shaken for 2 h before reading on a Microbeta plate reader. Non-specific binding is determined by the addition of 10 μM cold L-691,831 compound.

Assay [2] concerns synthesis of LTB4 in human whole blood. The assay can be described thus: Human whole blood LTB4 production inhibition assay. The class given is cell-based. Conditions: heparinized human whole blood, calcimycin 20 μM, plasma LTB4; read-out: HuWB IC50. The procedure: Compounds are additionally tested in a human whole blood assay to determine their ability to inhibit the synthesis of LTB4 in a cellular system. Compounds are combined with heparinized human whole blood and incubated for 15 minutes at 37° C. Calcimycin (20 μM final, prepared in phosphate-buffered saline, pH 7.4) is then added and the mixture is incubated for another 30 minutes at 37° C. The samples are centrifuged for 5 min at low speed (1500×g) and the plasma layer is removed. Plasma LTB4 concentrations are then measured using an antibody-based homogenous time-resolved fluorescence method (CisBio, Bedford, Mass.).

In the case of `COc1ccc(-c2ccc(NC(=O)C(C)(c3ccc(-c4cnc5c(c4)CCN5)cc3)C(C)C)nc2)cn1` (stereo not shown) [Example 164, 2-[4-(2,3-dihydro-1H-pyrrolo[2,3-b]pyridin-5-yl)phenyl]-N-(6'-methoxy-3,3'-bipyridin-6-yl)-2,3-dimethylbutanamide], the IC50 in assay [1] was found to be 1.9 nM; in assay [2] it was 315 nM.
Taken in the same sequence, the figures for `Nc1ncc(-c2ccc(C3(C(=O)Nc4cc(-c5ccccc5)no4)CCOCC3)cc2)cn1` [Example 37, 4-[4-(2-aminopyrimidin-5-yl)phenyl]-N-(3-phenyl-1,2-oxazol-5-yl)tetrahydro-2H-pyran-4-carboxamide] were 35 nM and over 3000 nM.
On the same counts, the results for `Nc1ncc(-c2ccc(C3(C(=O)Nc4cccc(OC(F)(F)F)c4)CCOCC3)cc2)cn1` [Example 21] are 12 nM and over 3000 nM.
Taken in the same sequence, the figures for `Cc1ccc(NC(=O)C2(c3ccc(-c4cnc(N)nc4)cc3)CCOCC2)cc1C#N` [Example 62, 4-[4-(2-aminopyrimidin-5-yl)phenyl]-N-(3-cyano-4-methylphenyl)tetrahydro-2H-pyran-4-carboxamide] were 33.5 nM and over 3000 nM.
For `Cc1nc(-c2ccc(NC(=O)C3(c4ccc(-c5cnc(N)nc5)cc4)CCCC3)nc2)cs1` [Example 223], the concentration for half-maximal inhibition (IC50) in assay [1] was determined as 7.15 nM; in assay [2] it was 1670 nM.
On the same counts, the results for `Cc1cc(NC(=O)C2(c3ccc(-c4cnc(N)nc4)cc3)CCOCC2)cc(C(F)(F)F)c1` [Example 46, 4-[4-(2-aminopyrimidin-5-yl)phenyl]-N-[3-methyl-5-(trifluoromethyl)phenyl] tetrahydro-2H-pyran-4-carboxamide] are 180 nM and over 3000 nM.
Turning to `Nc1ncc(-c2ccc(C3(C(=O)Nc4ccc(C(F)(F)F)cn4)CCOCC3)cc2)cn1` [Example 23, 4-[4-(2-aminopyrimidin-5-yl)phenyl]-N-[5-(trifluoromethyl)pyridin-2-yl]tetrahydro-2H-pyran-4-carboxamide], the IC50 in assay [1] is 59.7 nM; in assay [2] it was over 3000 nM.
Taken in the same sequence, the figures for `Nc1ncc(-c2ccc(C3(C(=O)Nc4nccs4)CCC3)cc2)cn1` [Example 200, 1-[4-(2-aminopyrimidin-5-yl)phenyl]-N-(1,3-thiazol-2-yl)cyclobutanaecarboxamide] were 19 nM and 2010 nM.
On the same counts, the results for `Nc1ncc(-c2ccc(C3(C(=O)Nc4cnc5ccccc5c4)CCOCC3)cc2)cn1` [Example 11, 4-[4-(2-aminopyrimidin-5-yl)phenyl]-N-(quinolin-3-yl)tetrahydro-2H-pyran-4-carboxamide] are 21.9 nM and over 3000 nM.
Taken in the same sequence, the figures for `CS(=O)(=O)c1ccc(NC(=O)C2(c3ccc(-c4cnc(N)nc4)nc3)CCC2)cc1` [Example 99, 1-[6-(2-aminopyrimidin-5-yl)pyridin-3-yl]-N-[4-(methylsulfonyl)phenyl]cyclobutane-carboxamide] were 45.5 nM and 570 nM.
For `COc1ccc(-c2nc(NC(=O)C3(c4ccc(-c5cnc(N)nc5)cc4)CCC3)n[nH]2)cc1` [Example 244, 1-[4-(2-aminopyrimidin-5-yl)phenyl]-N-[5-(4-methoxyphenyl)-1H-1,2,4-triazol-3-yl]cyclobutanecarboxamide], the IC50 in assay [1] stood at 10.8 nM.
The same measure, in the same setting: in the case of `CN1CCN(c2cccc(NC(=O)C3(c4ccc(-c5cnc(N)nc5)cc4)CCOCC3)c2)CC1` [Example 53, 4-[4-(2-aminopyrimidin-5-yl)phenyl]-N-[3-(4-methylpiperazin-1-yl)phenyl]tetrahydro-2H-pyran-4-carboxamide] it was 280 nM; in that of `CC(=O)N1CCc2cc(NC(=O)C3(c4ccc(-c5cnc(N)nc5)cc4)CCOCC3)ccc21` [Example 42, N-(1-acetyl-2,3-dihydro-1H-indol-5-yl)-4-[4-(2-aminopyrimidin-5-yl)phenyl]tetrahydro-2H-pyran-4-carboxamide], 310 nM.
Same read-out and setting: next, `COCCNc1ncc(-c2ccc(C3(C(=O)Nc4ccc(-c5csc(C)n5)cn4)CCOCC3)cc2)cn1` [Example 207, 4-(4-{2-[(2-methoxyethyl)amino]pyrimidin-5-yl}phenyl)-N-[5-(2-methyl-1,3-thiazol-4-yl)pyridin-2-yl]tetrahydro-2H-pyran-4-carboxamide]: 230 nM.
In the case of `CC(C)(C)c1ccc(NC(=O)C2(c3ccc(-c4cnc(N)nc4)cc3)CCOCC2)cc1` [Example 17, 4-[4-(2-aminopyrimidin-5-yl)phenyl]-N-(4-tert-butylphenyl)tetrahydro-2H-pyran-4-carboxamide], the IC50 in assay [1] came out at 330 nM.
On the same count and under the same terms, next, `Nc1ncc(-c2ccc(C3(C(=O)Nc4cccc(S(=O)(=O)C(F)(F)F)c4)CCOCC3)cc2)cn1` [Example 44, 4-[4-(2-aminopyrimidin-5-yl)phenyl]-N-{3-[(trifluoromethyl)sulfonyl]phenyl}tetrahydro-2H-pyran-4-carboxamide]: 270 nM.
The same measure, in the same setting: in the case of `Nc1ncc(-c2ccc(C3(C(=O)Nc4ccccc4-c4ccccc4)CCC3)cc2)cn1` [Example 202, 1-[4-(2-aminopyrimidin-5-yl)phenyl]-N-(biphenyl-2-yl)cyclobutanecarboxamide] it was 56.5 nM; in that of `CCOC(=O)c1ccnc(NC(=O)C2(c3ccc(-c4cnc(N)nc4)cc3)CCOCC2)c1` [Example 84, ethyl 2-[({4-[4-(2-aminopyrimidin-5-yl)phenyl]tetrahydro-2H-pyran-4-yl}carbonyl)amino]pyridine-4-carboxylate], 180 nM.
On to `Cc1nc(-c2ccc(NC(=O)C(c3ccc(-c4cnc(N)nc4)cc3)C3CCCC3)nc2)cs1` (stereo not shown) [Example 248, 2-[4-(2-aminopyrimidin-5-yl)phenyl]-2-cyclopentyl-N-[5-(2-methyl-1,3-thiazol-4-yl)pyridin-2-yl]acetamide], for which the IC50 in assay [1] was determined as 240 nM.
The same measure, in the same setting: in the case of `NC(=O)c1ccc(NC(=O)C2(c3ccc(-c4cnc(N)nc4)cc3)CCC2)cn1` [Example 240, 5-[({1-[4-(2-aminopyrimidin-5-yl)phenyl]cyclobutyl}carbonyl)amino]pyridine-2-carboxamide] it was 4.4 nM; in that of `Nc1ncc(-c2ccc(C3(C(=O)Nc4ccccn4)CCCCC3)cc2)cn1` [Example 160, 1-[4-(2-aminopyrimidin-5-yl)phenyl]-N-(pyridin-2-yl)cyclohexanecarboxamide], 13 nM; in that of `Cc1ccc(NC(=O)C2(c3ccc(-c4cnc(N)nc4)cc3)CCC2)cn1` [Example 249, 1-[4-(2-aminopyrimidin-5-yl)phenyl]-N-(6-methylpyridin-3-yl)cyclobutanecarboxamide], 22.5 nM.
Still for that read-out and setting: next, `Cc1nc(-c2ccc(NC(=O)C3(c4ccc(-c5cnc(N)nc5)cc4)CC3)nc2)cs1` [Example 251, 1-[4-(2-aminopyrimidin-5-yl)phenyl]-N-[5-(2-methyl-1,3-thiazol-4-yl)pyridin-2-yl]cyclopropanecarboxamide]: 16 nM; `Nc1ncc(-c2ccc(C3(C(=O)Nc4cccc(CN5CCCC5)c4)CCOCC3)cc2)cn1` [Example 50, 4-[4-(2-aminopyrimidin-5-yl)phenyl]-N-[3-(pyrrolidin-1-ylmethyl)phenyl]tetrahydro-2H-pyran-4-carboxamide]: 440 nM; `CCOC(=O)c1sc(NC(=O)C2(c3ccc(-c4cnc(N)nc4)cc3)CCOCC2)nc1-c1ccccc1` [Example 19, ethyl 2-[({4-[4-(2-aminopyrimidin-5-yl)phenyl]tetrahydro-2H-pyran-4-yl}carbonyl)amino]-4-phenyl-1,3-thiazole-5-carboxylate]: 120 nM.
With `Nc1ncc(-c2ccc(C3(C(=O)Nc4nc(-c5ccccc5)ns4)CCC3)cc2)cn1` [Example 242, 1-[4-(2-aminopyrimidin-5-yl)phenyl]-N-(3-phenyl-1,2,4-thiadiazol-5-yl)cyclobutanecarboxamide], the IC50 in assay [1] came to 3.95 nM.
Turning to `Cc1cccc(NC(=O)C2(c3ccc(-c4cnc(N)nc4)cc3)CCOCC2)n1` [Example 141, 4-[4-(2-aminopyrimidin-5-yl)phenyl]-N-(6-methylpyridin-2-yl)tetrahydro-2H-pyran-4-carboxamide], the IC50 in assay [1] amounted to 190 nM.
